Results reported in patent publication US11286268B1, “EIF4E-inhibiting compounds and methods” (EFFECTOR THERAPEUTICS, INC., priority 2019, dated 2022).
Read-outs that look alike come from different tables or passages of the source. One block for each molecule: values may come before it.

Biological target: recombinant eIF4E (Homo sapiens (Human), UniProt P06730)
Assay: Fluorescence polarization competition assay for eIF4E binding potency
In short: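 IC50 derived from fluorescence polarization over an 8-point, 3-fold compound series after 30 min room-temperature equilibration in the dark. Mix: eIF4E 75 nM pre-bound 5 min to 20 nM EDA-m^7GDP-ATTO-550; buffer 20 mM Tris pH 7.5, 100 mM NaCl, 1 mM DTT, 0.02% Tween-20; DMSO 1%.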

[1] = fluorescence polarization competition, 75 nM recombinant eIF4E, 20 nM EDA-m7GDP-ATTO-550, IC50 class, read-out: elF4E FP
[2] = inhibition of eIF4E/EDA-m7GDP-ATTO-550 binding, calculated IC50 values, Table 4B, read-out: IC50

recombinant eIF4E, sequence (P06730 whole entry): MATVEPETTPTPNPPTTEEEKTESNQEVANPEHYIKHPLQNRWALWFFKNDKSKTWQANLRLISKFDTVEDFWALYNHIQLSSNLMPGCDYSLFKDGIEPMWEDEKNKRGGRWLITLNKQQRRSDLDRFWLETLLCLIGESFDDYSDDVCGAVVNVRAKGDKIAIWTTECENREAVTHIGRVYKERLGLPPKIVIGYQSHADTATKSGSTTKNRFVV

SMILES: Cc1sc2c(-c3cc(Cl)ccc3OCCn3c(C)nc4cc(C(F)(F)F)c(N5CCN(C)CC5)cc4c3=O)ccnc2c1C(=O)O [compound 1210]
IC50 [1]: < 0.05 µM
IC50 [2]: 0.0483 µM

SMILES: Cc1cc(-c2cc(Cl)ccc2OCCc2nc3cc(N4CCN(C)CC4)c(C(F)(F)F)cc3nc2C)c2scc(C(=O)O)c2n1 [compound 1211]
IC50 [1]: 0.05 to 1 µM
IC50 [2]: > 1 µM

SMILES: Cc1nc2cc(C(F)(F)F)c(N3CCN(C)CC3)c(C#N)c2c(=O)n1CC#Cc1ccc(Cl)cc1-c1ccnc2c(C(=O)O)csc12 [compound 1212]
IC50 [1]: < 0.05 µM
IC50 [2]: 0.0442 µM

SMILES: Cc1cc(-c2cc(Cl)ccc2C#CCn2c(C)nc3cc(C(F)(F)F)c(N4CCN(C)CC4)c(C#N)c3c2=O)c2scc(C(=O)O)c2n1 [compound 1213]
IC50 [1]: < 0.05 µM
IC50 [2]: 0.0427 µM

SMILES: CCc1cc(-c2cc(F)c(F)cc2OCCn2c(C)nc3cc(C(F)(F)F)c(N4CCN(C)CC4)c(C#N)c3c2=O)c2scc(C(=O)O)c2n1 [compound 1215]
IC50 [1]: < 0.05 µM
IC50 [2]: 0.0257 µM

SMILES: Cc1cc(-c2cc(Cl)ccc2OCCn2c(C)nc3c(-c4ccccc4)nc(N4CCN(C)CC4)c(C#N)c3c2=O)c2scc(C(=O)O)c2n1 [compound 1217]
IC50 [1]: < 0.05 µM
IC50 [2]: 0.0242 µM

SMILES: Cc1ccc(-c2cc(Cl)ccc2OCCn2c(C)nc3cc(C(F)(F)F)c(N4CCN(C)CC4)c(C#N)c3c2=O)c2scc(C(=O)O)c12 [compound 1218]
IC50 [1]: < 0.05 µM
IC50 [2]: 0.0131 µM

SMILES: CCc1cc(-c2cc(Cl)ccc2OCCn2c(C)nc3cnc(N4CCNC5CC54)c(C#N)c3c2=O)c2scc(C(=O)O)c2n1 (stereo not shown) [compound 1220]
IC50 [1]: < 0.05 µM
IC50 [2]: 0.0131 µM

SMILES: Cc1nc2cc(C(F)(F)F)c(N3CCN(C)CC3)c(C#N)c2c(=O)n1CCOc1ccc(Cl)cc1-c1ccnc(C(=O)O)c1 [compound 1221]
IC50 [1]: < 0.05 µM
IC50 [2]: 0.03 µM

SMILES: COc1cc(-c2cc(Cl)ccc2OCCn2c(C)nc3cc(C(F)(F)F)c(N4CCN(C)CC4)c(C#N)c3c2=O)cc(C(=O)O)n1 [compound 1224]
IC50 [1]: 0.05 to 1 µM

SMILES: COC1CCN(c2ncc3nc(C)n(CCOc4ccc(Cl)cc4-c4cc(C)nc5c(C(=O)O)csc45)c(=O)c3c2C#N)C1 (stereo not shown) [compound 1234]
IC50 [1]: < 0.05 µM
IC50 [2]: 0.0302 µM

SMILES: Cc1cc(-c2cc(Cl)ccc2OCCn2c(C)nc3cnc(N4CCC(O)C4)c(C#N)c3c2=O)c2sc(C)c(C(=O)O)c2n1 (stereo not shown) [compound 1236]
IC50 [1]: < 0.05 µM
IC50 [2]: 0.0339 µM

SMILES: Cc1nc2cc(C(F)(F)F)c(N3CCN(CC(F)F)CC3)c(C#N)c2c(=O)n1CCOc1ccc(Cl)cc1-c1ccnc2c(C(=O)O)csc12 [compound 1239]
IC50 [1]: < 0.05 µM
IC50 [2]: 0.0182 µM

SMILES: Cc1cc2cc(C(F)(F)F)c(N3CCN(C)CC3)c(C#N)c2c(=O)n1CCOc1ccc(Cl)cc1-c1ccnc2c(C(=O)O)csc12 [compound 1240]
IC50 [1]: < 0.05 µM
IC50 [2]: 0.0155 µM

SMILES: Cc1nc2cc(C(F)(F)F)c(N3CCN(C4COC4)CC3)c(C#N)c2c(=O)n1CCOc1ccc(Cl)cc1-c1ccnc2c(C(=O)O)csc12 [compound 1241]
IC50 [1]: < 0.05 µM
IC50 [2]: 0.0173 µM

SMILES: C#Cc1cc2nccc(-c3cc(Cl)ccc3OCCn3c(C)nc4cc(C(F)(F)F)c(N5CCN(C)CC5)c(C#N)c4c3=O)c2s1 [compound 1244]
IC50 [1]: < 0.05 µM
IC50 [2]: 0.0194 µM

SMILES: Cc1nc2cc(C(F)(F)F)c(N3CCN(C)CC3)c(C#N)c2c(=O)n1CCOc1ccc(Cl)cc1-c1ccnc2cc(C#N)sc12 [compound 1245]
IC50 [1]: < 0.05 µM
IC50 [2]: 0.0156 µM

SMILES: Cc1nc2cc(C(F)(F)F)c(N3CCN(C)CC3)c(C#N)c2c(=O)n1CCOc1ccc(Cl)cc1-c1ccnc2cc(Cl)sc12 [compound 1246]
IC50 [1]: 0.05 to 1 µM
IC50 [2]: 0.106 µM

SMILES: Cc1nc2cc(C(F)(F)F)c(N3CCN(C)CC3)c(C#N)c2c(=O)n1CCOc1ccc(Cl)cc1-c1ccnc2c(Cl)csc12 [compound 1247]
IC50 [1]: < 0.05 µM
IC50 [2]: 0.0355 µM

SMILES: Cc1cc2nccc(-c3cc(Cl)ccc3OCCn3c(C)nc4cc(C(F)(F)F)c(N5CCN(C)CC5)c(C#N)c4c3=O)c2s1 [compound 1248]
IC50 [1]: 0.05 to 1 µM
IC50 [2]: 0.0607 µM

SMILES: Cc1csc2c(-c3cc(Cl)ccc3OCCn3c(C)nc4cc(C(F)(F)F)c(N5CCN(C)CC5)c(C#N)c4c3=O)ccnc12 [compound 1249]
IC50 [1]: 0.05 to 1 µM
IC50 [2]: 0.0759 µM

SMILES: Cc1nc2cc(C(F)(F)F)c(N3CCN(C)CC3)c(C#N)c2c(=O)n1CCOc1ccc(Cl)cc1-c1ncnc2ccsc12 [compound 1250]
IC50 [1]: 0.05 to 1 µM
IC50 [2]: 0.0758 µM

SMILES: Cc1sc2c(-c3cc(Cl)ccc3OCCn3c(C)nc4cc(C(F)(F)F)c(N5CCN(C)CC5)c(C#N)c4c3=O)ccnc2c1C [compound 1252]
IC50 [2]: 0.222 µM

SMILES: Cc1nc2cc(C(F)(F)F)c(N3CCN(C)CC3)c(C#N)c2c(=O)n1CCOc1ccc(Cl)cc1-c1ccnc2c(C#N)csc12 [compound 1254]
IC50 [2]: 0.0265 µM

SMILES: Cc1nc2cc(C(F)(F)F)c(CCN(C)C)c(C#N)c2c(=O)n1CCOc1ccc(Cl)cc1-c1ccnc2ccsc12 [compound 1255]
IC50 [2]: 0.15 µM

SMILES: Cc1nc2cc(C(F)(F)F)c(CN3CCN(C)CC3)c(C#N)c2c(=O)n1CCOc1ccc(Cl)cc1-c1ccnc2ccsc12 [compound 1256]
IC50 [2]: 0.0247 µM

SMILES: Cc1nc2cnc(N3CCN(C)CC3)c(C#N)c2c(=O)n1CCOc1ccc(Cl)cc1-c1ccnc2ccsc12 [compound 1257]
IC50 [2]: 0.0525 µM

SMILES: Cc1nc2cnc(N3CCC(O)C3)c(C#N)c2c(=O)n1CCOc1ccc(Cl)cc1-c1ccnc2ccsc12 (stereo not shown) [compound 1258]
IC50 [2]: 0.0615 µM

SMILES: Cc1nc2cc(C(F)(F)F)c(C#CCN)c(C#N)c2c(=O)n1CCOc1ccc(Cl)cc1-c1ccnc2c(C(=O)O)csc12 [compound 1260]
IC50 [2]: 0.013 µM

SMILES: Cc1nc2cc(C(F)(F)F)c(N3CCN(C)C(CO)C3)c(C#N)c2c(=O)n1CCOc1ccc(Cl)cc1-c1ccnc2c(C(=O)O)csc12 (stereo not shown) [compound 1261]
IC50 [2]: 0.0336 µM

SMILES: Cc1ncc(F)cc1-c1c(CN(C)C)cc2nc(C)n(CCOc3ccc(Cl)cc3-c3ccnc4c(C(=O)O)csc34)c(=O)c2c1C#N [compound 1267]
IC50 [2]: > 1 µM

SMILES: COc1ccc(-c2csc3c(-c4cc(Cl)ccc4OCCn4c(C)nc5cnc(N6CCN(C)CC6)c(C#N)c5c4=O)ccnc23)cc1 [compound 1268]
IC50 [2]: 0.472 µM

SMILES: Cc1nc2cc(C(F)(F)F)c(N3CCN(C)CC3)c(C#N)c2c(=O)n1CCSc1ccc(Cl)cc1-c1ccnc2c(C(=O)O)csc12 [compound 1269]
IC50 [2]: 0.0666 µM

Results, then the molecule that gave them:

IC50 [1]: < 0.05 µM
IC50 [2]: 0.00508 µM
SMILES: Cc1nc2cc(C(F)(F)F)c(N3CCN(C)CC3)c(C#N)c2c(=O)n1CCOc1ccc(Cl)cc1-c1ccc(F)c2c(C(=O)O)csc12 [compound 1214]

IC50 [1]: < 0.05 µM
IC50 [2]: 0.0103 µM
SMILES: CCc1cc(-c2cc(Cl)ccc2OCCn2c(C)nc3cnc([C@@H]4[C@@H]5CN(C)C[C@@H]54)c(C#N)c3c2=O)c2scc(C(=O)O)c2n1 [compound 1216]

IC50 [1]: < 0.05 µM
IC50 [2]: 0.00399 µM
SMILES: CCc1cc(-c2cc(Cl)ccc2OCCn2c(C)nc3cnc(N4CCN(C)C5CC54)c(C#N)c3c2=O)c2scc(C(=O)O)c2n1 (stereo not shown) [compound 1219]

IC50 [1]: < 0.05 µM
IC50 [2]: 0.00302 µM
SMILES: Cc1cc(-c2cc(Cl)ccc2OCCn2c(C)nc3cc(C(F)(F)F)c(N4CCN(C)CC4)c(C#N)c3c2=O)cc(C(=O)O)n1 [compound 1222]

IC50 [1]: < 0.05 µM
IC50 [2]: 0.00279 µM
SMILES: CCc1cc(-c2cc(Cl)ccc2OCCn2c(C)nc3cc(C(F)(F)F)c(N4CCN(C)CC4)c(C#N)c3c2=O)cc(C(=O)O)n1 [compound 1223]

IC50 [1]: < 0.05 µM
IC50 [2]: 0.00312 µM
SMILES: Cc1nc2cc(C(F)(F)F)c(N3CCN(C)CC3)c(C#N)c2c(=O)n1CCOc1ccc(Cl)cc1-c1cc(C(=O)O)nc(N(C)C)c1 [compound 1225]

IC50 [1]: < 0.05 µM
IC50 [2]: 0.00663 µM
SMILES: Cc1cc(-c2cc(Cl)ccc2OCCn2c(C)nc3cc(C(F)(F)F)c(N4CCN(C)CC4)c(C#N)c3c2=O)c(C)c(C(=O)O)n1 [compound 1226]

IC50 [1]: < 0.05 µM
IC50 [2]: 0.0128 µM
SMILES: Cc1cc(-c2cc(Cl)ccc2OCCn2c(C)nc3cnc(-c4ccc(C)c(O)c4)c(C#N)c3c2=O)c2scc(C(=O)O)c2n1 [compound 1227]

IC50 [1]: < 0.05 µM
IC50 [2]: 0.00111 µM
SMILES: Cc1nc2cc(C(F)(F)F)c(N3CCN(C)CC3)c(C#N)c2c(=O)n1CCOc1ccc(Cl)cc1-c1ccnc2c(-c3nn[nH]n3)csc12 [compound 1228]

IC50 [1]: < 0.05 µM
IC50 [2]: 0.0107 µM
SMILES: Cc1nc2cnc(N(C)[C@H]3CC[C@H](N(C)CCF)CC3)c(C#N)c2c(=O)n1CC#Cc1ccc(Cl)cc1-c1ccnc2c(C(=O)O)csc12 [compound 1229]

IC50 [1]: < 0.05 µM
IC50 [2]: 0.0103 µM
SMILES: Cc1nc2cc(C(F)(F)F)c(N3CCN(C)CC3)cc2c(=O)n1CCOc1ccc(Cl)cc1-c1ccnc2c(C(=O)O)csc12 [compound 1230]

IC50 [1]: < 0.05 µM
IC50 [2]: 0.00632 µM
SMILES: CCc1cc(-c2cc(Cl)ccc2OCCn2c(C)nc3cnc(N4CCC(O)C4)c(C#N)c3c2=O)c2scc(C(=O)O)c2n1 (stereo not shown) [compound 1235]

IC50 [1]: < 0.05 µM
IC50 [2]: 0.00668 µM
SMILES: Cc1sc2c(-c3cc(Cl)ccc3OCCn3c(C)nc4cc(C(F)(F)F)c(N5CCN(C)CC5)c(C#N)c4c3=O)cc(CF)nc2c1C(=O)O [compound 1237]

IC50 [1]: < 0.05 µM
IC50 [2]: 0.00885 µM
SMILES: Cc1cc(-c2cc(Cl)ccc2OCCn2c(C)nc3cc(C(F)(F)F)c(N4CCN(C5COC5)CC4)c(C#N)c3c2=O)c2scc(C(=O)O)c2n1 [compound 1242]

IC50 [1]: < 0.05 µM
IC50 [2]: 0.00555 µM
SMILES: COCCN1CCN(c2c(C(F)(F)F)cc3nc(C)n(CCOc4ccc(Cl)cc4-c4ccnc5c(C(=O)O)csc45)c(=O)c3c2C#N)CC1 [compound 1243]

IC50 [2]: 0.00477 µM
SMILES: Cc1nc2cc(C(F)(F)F)c(N3CCN(C)CC3)c(C#N)c2c(=O)n1CCOc1ccc(Cl)cc1-c1ccnc2cnsc12 [compound 1251]

IC50 [2]: 0.0084 µM
SMILES: Cc1nc2cc(C(F)(F)F)c(N3CCN(C)CC3)c(C#N)c2c(=O)n1CCOc1ccc(Cl)cc1-c1cc(CF)nc2ccsc12 [compound 1253]

IC50 [2]: 0.0124 µM
SMILES: Cc1nc2cnc(C3(F)CCN(C)CC3)c(C#N)c2c(=O)n1CCOc1ccc(Cl)cc1-c1ccnc2c(C(=O)O)csc12 [compound 1264]

IC50 [2]: 0.0115 µM
SMILES: Cc1nc(N2CC3(CN(C)C3)C2)c(C#N)c2c(=O)n(CCOc3ccc(Cl)cc3-c3ccnc4c(C(=O)O)csc34)c(C)nc12 [compound 1265]
